In patent US20040019070A1, “Pyrrole-condensed morphinoid derivatives” (priority 2000, published 2004):

How the values were obtained:
[1] = biological target: T1, human delta opioid receptor (Homo sapiens, UniProt P41143); experiment: radioligand binding assay, [3H]-DADLE, cloned human delta opioid receptor in CHO cells
T1 construct: expressed in transfected cells; membranes prepared
Experimental: The activity of the compounds of the present invention as selective delta ligands is determined in radioligand binding assays as described below.
(§1) The activity of the compounds of the present invention as selective delta ligands is determined in radioligand binding assays using cloned human delta, mu and kappa opioid receptors stably expressed in cell lines as described below.
(§2) CHO cells were subjected to stable transfection with cDNA encoding the human delta and mu opioid receptors. Clones were grown in suspension culture in serum free media. Selection was performed by growth in the absence of nucleotides.
(§3) Membranes were prepared as previously described (J. Med. Chem. 1997, 40, 3192 ). The binding of the preferential delta ligand [^3H]-[D-Ala^2,D-Leu^5]-enkephalin (DADLE) was evaluated at its KD concentration (0.7 nM). The binding of the mu ligand [^3H]-DAMGO (Eur. J. Pharmacol., 1989, 166, 213) and of the kappa ligand [^3H]-U69593 (Excerpta Medica, 1990, 211) were carried out at 0.5 nM. Non specific binding was determined in the presence of 10 uM of naloxone. Binding data were expressed as percentage of inhibition and fitted the following equation: f(x)=100·X/(IC50+X) where X is the cold drug concentration value. The IC50 values obtained were used to calculate the inhibitory constants (Ki) accordingly to the Cheng and Prusoff relation (Biochem. Pharmacol., 1973, 22, 3099).

human mu opioid receptor = biological target: T2, human mu opioid receptor (Homo sapiens, UniProt P35372); experiment: radioligand binding assay, [3H]-DAMGO, cloned human mu opioid receptor in CHO cells; settings: ratio of Ki at mu ([3H]-DAMGO 0.5 nM) to Ki at delta
T2 construct: expressed in transfected cells; membranes prepared
T2 sequence (P35372 whole entry): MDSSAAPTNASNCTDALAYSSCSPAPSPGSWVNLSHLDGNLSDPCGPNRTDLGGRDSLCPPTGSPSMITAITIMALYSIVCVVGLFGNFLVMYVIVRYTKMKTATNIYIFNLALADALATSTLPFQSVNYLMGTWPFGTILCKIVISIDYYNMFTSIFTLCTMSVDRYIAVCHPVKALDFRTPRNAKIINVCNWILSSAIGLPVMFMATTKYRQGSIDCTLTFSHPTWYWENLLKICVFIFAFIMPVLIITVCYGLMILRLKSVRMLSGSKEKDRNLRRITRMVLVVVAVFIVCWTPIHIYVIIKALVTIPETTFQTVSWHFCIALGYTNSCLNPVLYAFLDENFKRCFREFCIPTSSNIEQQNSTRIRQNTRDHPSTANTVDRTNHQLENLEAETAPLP
Experimental: as §1, §2, §3

T1 sequence (P41143 whole entry): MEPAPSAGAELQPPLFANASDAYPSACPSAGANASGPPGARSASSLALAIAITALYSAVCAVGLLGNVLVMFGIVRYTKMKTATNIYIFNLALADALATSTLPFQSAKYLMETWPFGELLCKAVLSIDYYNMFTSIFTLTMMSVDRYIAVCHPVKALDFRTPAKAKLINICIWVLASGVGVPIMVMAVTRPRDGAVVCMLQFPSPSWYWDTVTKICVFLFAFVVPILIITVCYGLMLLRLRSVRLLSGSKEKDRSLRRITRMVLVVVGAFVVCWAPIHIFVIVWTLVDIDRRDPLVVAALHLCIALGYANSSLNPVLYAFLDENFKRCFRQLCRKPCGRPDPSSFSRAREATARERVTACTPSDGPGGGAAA

COc1ccc2c3c1O[C@H]1c4[nH]c(C(=O)N5C(C)(C)CCCC5(C)C)c(C)c4C[C@H]4[C@@H](C2)N(C)CC[C@]314 [Example 1]
Ki [1]: 0.3 nM | Ki mu/Ki delta (human mu opioid receptor): 267

COc1ccc2c3c1O[C@H]1c4[nH]c(C(=O)N5CCC(C(=O)c6ccccc6)CC5)c(C)c4C[C@H]4[C@@H](C2)N(C)CC[C@]314 [Example 6]
Ki [1]: 1.4 nM | Ki mu/Ki delta (human mu opioid receptor): 220
